Source: US6683052B1, “Lipopeptides containing an interferon-γ fragment, and uses thereof in pharmaceutical compositions” (Institut National de la Sante et de la Recherche Medicale …, priority 1998, dated 2004)
Where a SMILES comes first, the peptide text is derived from it. The star is where a group is joined. Palmitoyl = CCCCCCCCCCCCCCCC(=O)*

Tests used:
[1] = tested on: murine splenocytes and COLO 205 cells; experiment: Cytotoxicity at high lipopeptide concentrations; type: cell-based
[2] = Circular dichroism studies; type: physicochemical; settings: 2 mM pH 7 phosphate buffer
Protocol: The circular dichroism measurements on the peptides were carried out at 25° C. using a Jobin-Yvon CD-6 machine at controlled temperature. The scans were carried out with a cell 0.1 cm in length in an average time of 5 sec. The wavelength interval measured ranges from 185 to 260 nm at a scanning step speed of 0.5 nm/step. The scans were carried out on the peptides at neutral pH in a 2 mM phosphate buffer with or without the helix-stabilizing reagent trifluoroethanol (TFE). The peptide concentration was adjusted to a concentration of 20 μM, after determination of the exact amount of a 100 μM solution by quantitative amino acid analysis. The average values of 4 repeat scans were expressed as average molar ellipticity per residue (deg. cm^2 dmol.).

murine splenocytes = experiment: Induction of class II CMH molecules (IA^b) on murine splenocytes by lipopeptide fragments (FIG. 12A); type: cell-based, 129 Sv mice; settings: murine splenocytes, 24 hours, different concentrations
Protocol: (§1) Fresh splenocytes are obtained from 7-week-old female 129 Sv mice. The COLO 205 human colon carcinoma lines are obtained from the ATCC (American Type Culture Collection). The splenocytes and COLO 205 cells are maintained in RPMI 1640 (Gibco BRL, Courbevoie, France), supplemented with 10% FCS (Gibco BRL), sodium pyruvate (Sigma, St. Louis, USA) and incubated at 37° C. in 5% CO2.
(§2) The cells were stimulated for 24 hours with different concentrations of MuL, L-mIFNγ 113-132, L-mIFNγ 122-132 or MuSL. The murine splenocytes and COLO 205 cells were labelled for the expression of II MHC with 1 μg of anti-mouse IA^b FITC monoclonal antibody (mAb) (Pharmingen, San Diego, USA) and 10 μl of anti-HLA-DR clone TAL.1B5 mouse FITC mAb (Cymbus Biotechnology Ltd, Hants, UK), respectively. A negative control mouse FITC IgG1 (DAKO S. A., Trappes, France) was used as control isotype. The cells were incubated for 1 hour at 4° C. in PBS, 10% FCS and then washed, and the expression of II MHC was analysed by flow cytometry using a Coulter EPILS II cytometer (Coulter, Hialeah, Fla., USA) at a rate of 10,000 events per sample.
(§3) FIG. 12: Induction of class II CMH molecules by human or murine cells stimulated with lipopeptides derived from IFN-γ. The murine splenocytes (A) and the COLO 205 human cell line (B) were incubated for 24 hours with different concentrations of lipopeptides derived from IFN-γ. The cells were labelled with a monoclonal antibody directed against the class II CMH molecules, and analysed by flow cytometry. The ratio between the average fluorescence intensity of the cells treated with the lipopeptides and between the average fluorescence intensity of the untreated cells is indicated on the y-axis. The lipopeptide concentration is indicated in μM on the x-axis; MuL: solid circles; MuSL : hollow circles; L-mIFN 113-132: triangles; L-mIFN 122-132: X.

COLO 205 human cell line = experiment: Induction of HLA-DR on COLO 205 cells by lipopeptide fragments (FIG. 12B); type: cell-based; settings: COLO 205, 24 hours, different concentrations
Protocol: as §1, §2, §3

[3] = tested on: splenocytes taken from mice 129 (Wild type: WT); experiment: Involvement of the IFN-γ receptor: IA^d and Fc-γ R on splenocytes of wild type mice 129; type: cell-based; settings: stimulation for 24 hours, flow cytometry
Protocol: (§4) Procedure. The splenocytes and peritoneal cells taken from an animal (Balb/c mouse) are re-cultured at a rate of 2.5×10^6 splenocytes and […] peritoneal cells per well in 24-well plates (NUNC) stimulated with 50 μM of the different peptides in a final volume of 1 ml. After stimulation for 24 hours, the cells are labelled with the anti IA^d monoclonal antibody described in the preceding paragraph, according to the same protocol. To detect the Fc-γ R, the cells are labelled with 1 μg of a rat anti Fc-γ R monoclonal antibody (Pharmingen, San Diego, USA). Next, the cells are incubated for ½ hour with a rat anti IgG biotinylated polyclonal antibody. The revelation is then carried out with FITC streptavidin used at a dilution of 1:100 (Sigma, St. Louis, USA). The expression of Fc-γ R is determined by flow cytometry.
(§5) Principle. to confirm that the biological activity observed was effectively associated with a stimulation of the IFN-γ receptor, we repeated the same experiments, in parallel on splenocytes taken from mice 129 (Wild type: WT) and on cells taken from mice 129 no longer expressing the alpha chain of the IFN-γ receptor (KO mice).
(§6) Procedure. The experimental protocol followed is identical to that described in paragraph 2 above.

peritoneal cells = experiment: Expression of class II CMH molecules and Fc-γ receptors on peritoneal cells taken from an animal; type: cell-based, Balb/c mouse; settings: 50 μM, 24 hours, flow cytometry
Protocol: (§7) Principle: to evaluate the activity of the vectorized agonist on cells taken from an animal and treated in vitro (in order to assess the value of a subsequent in vivo study).
as §4

P388D1 = experiment: Induction of class II CMH molecules on P388D1 cell line, flow cytometry; type: cell-based, murine; settings: for percentage of class II CMH detected by flow cytometry, P388D1: 50 μM, stimulated for 24 hours
Protocol: (§8) Principle: to check the induction of class II CMH molecules on cell lines (P388D1 and WEHI3: murine myelomonocytes) with the above-mentioned peptides.
(§9) Procedure. The cells are cultured the day before at a rate of 3×10^5 cells per well in 24-well culture plates (NUNC). The following day, the cells are stimulated with the various lipopeptide and peptide constructs at a final concentration of 50 μM in 1 ml of medium. After incubation for 24 hours at 37° C. in an atmosphere saturated with 5% CO2, the cells are recovered and incubated for 1 hour at 4° C. with 3 μg of a biotinylated mouse anti-I-Ad monoclonal antibody (Pharmingen, San Diego, USA). After revelation for 30 minutes with FITC streptavidin used at a dilution of 1:100 (Sigma, St. Louis, USA), the expression of class II molecules is determined by flow cytometry.

[4] = tested on: human colon carcinoma cells (COLO 205); experiment: Induction of HLA-DR on COLO 205 cell line, flow cytometry; type: cell-based; settings: COLO 205, 50 μM
Protocol: Principle: human colon carcinoma cells (COLO 205) are analysed for their ability to express HLA-DR after having been stimulated with the various peptide constructs.
Procedure. The cell line COLO 205 is cultured at a rate of 3×10^5 cells per well in a 24-well culture plate (NUNC). The following day, the cells are stimulated with the various peptide constructs at a final concentration of 50 μM in 1 ml of medium, and are incubated at 37° C. for 24 hours. The cells are then recovered and labelled using 3 μg of an anti HLA-DR mouse biotinylated monoclonal antibody (clone L243). After revelation with FITC streptavidin, the cells are analysed by flow cytometry.

splenocytes = experiment: Expression of class II CMH molecules and Fc-γ receptors on splenocytes taken from an animal; type: cell-based, Balb/c mouse; settings: 50 μM, 24 hours, flow cytometry
Protocol: as §7, §4

[5] = tested on: cells taken from mice 129 no longer expressing the alpha chain of the IFN-γ receptor (KO mice); experiment: Involvement of the IFN-γ receptor: IA^d and Fc-γ R on cells of mice lacking the alpha chain of the IFN-γ receptor; type: cell-based; settings: stimulation for 24 hours, flow cytometry
Protocol: as §4, §5, §6

WEHI3 = experiment: Induction of class II CMH molecules on WEHI3 cell line, flow cytometry; type: cell-based, murine; settings: 50 μM, stimulated for 24 hours
Protocol: as §8, §9

| WT mice II CMH (%) [3] | WT mice RFc (%) [3] | splenocytes II CMH (%) (splenocytes) | splenocytes RFc (%) (splenocytes) | Compound | helical (ordered) conformation by CD ([2]; 25% trifluoroethanol) | increase in class II CMH molecules (FIG. 12A) (murine splenocytes) | increase in class II CMH molecules (FIG. 12B) (COLO 205 human cell line) | peritoneal cells II CMH (%) (peritoneal cells) | peritoneal cells RFc (%) (peritoneal cells) | percentage of class II CMH detected by flow cytometry, P388D1 (P388D1) | KO mice II CMR (%) [5] | KO mice RFc (%) [5] | percentage of class II CMH detected by flow cytometry, WEH1 (WEHI3) | further results |
| --- | --- | --- | --- | --- | --- | --- | --- | --- | --- | --- | --- | --- | --- | --- |
|  |  |  |  | CCCCCCCCCCCCCCCC(=O)NCCCC[C@H](NC(C)=O)C(=O)N[C@@H](C)C(=O)N[C@@H](CCCCN)C(=O)N[C@@H](Cc1ccccc1)C(=O)N[C@@H](CCC(=O)O)C(=O)N[C@H](C(=O)N[C@@H](CC(N)=O)C(=O)N[C@@H](CC(N)=O)C(=O)N1CCC[C@H]1C(=O)N[C@@H](CCC(N)=O)C(=O)N[C@H](C(=O)N[C@@H](CCC(N)=O)C(=O)N[C@@H](CCCNC(=N)N)C(=O)N[C@@H](CCC(N)=O)C(=O)N[C@@H](C)C(=O)N[C@@H](Cc1ccccc1)C(=O)N[C@@H](CC(N)=O)C(=O)N[C@@H](CCC(=O)O)C(=O)N[C@@H](CC(C)C)C(=O)N[C@H](C(=O)N[C@@H](CCCNC(=N)N)C(=O)N[C@H](C(=O)N[C@H](C(=O)N[C@@H](Cc1c[nH]cn1)C(=O)N[C@@H](CCC(N)=O)C(=O)N[C@@H](CC(C)C)C(=O)N[C@@H](CC(C)C)C(=O)N1CCC[C@H]1C(=O)N[C@@H](CCC(=O)O)C(=O)N[C@@H](CO)C(=O)N[C@@H](CO)C(=O)N[C@@H](CC(C)C)C(=O)N[C@@H](CCCNC(=N)N)C(=O)N[C@@H](CCCCN)C(=O)N[C@@H](CCCNC(=N)N)C(=O)N[C@@H](CCCCN)C(=O)N[C@@H](CCCNC(=N)N)C(=O)N[C@@H](CO)C(=O)N[C@@H](CCCNC(=N)N)C(N)=O)C(C)C)C(C)C)[C@@H](C)CC)C(C)C)C(C)C [MuL] (Ac-K(Palmitoyl)AKFEVNNPQVQRQAFNELIRVVHQLLPESSLRKRKRSR-NH2) |  |  |  |  |  |  |  |  |  | cytotoxicity [1]: cytotoxic |
|  |  |  |  | L-mIFN-γ 122-132: fragment 122-132 of murine IFNγ, carboxamide end, N-terminal Ac-K(Pam) group (Ac-K(Palmitoyl)ESSLRKRKRSR-NH2; SMILES CCCCCCCCCCCCCCCC(=O)NCCCC[C@H](NC(C)=O)C(=O)N[C@@H](CCC(=O)O)C(=O)N[C@@H](CO)C(=O)N[C@@H](CO)C(=O)N[C@@H](CC(C)C)C(=O)N[C@@H](CCCNC(=N)N)C(=O)N[C@@H](CCCCN)C(=O)N[C@@H](CCCNC(=N)N)C(=O)N[C@@H](CCCCN)C(=O)N[C@@H](CCCNC(=N)N)C(=O)N[C@@H](CO)C(=O)N[C@@H](CCCNC(=N)N)C(N)=O) | 50-60% | neither L-mIFN-γ 122-132 nor MuSL are active | neither L-mIFN-γ 122-132 nor MuSL are active |  |  |  |  |  |  |  |
| 12% | 1% | 12% | 7% | Mu: non-lipid peptide: sequence delimited by the amino acids in positions 95 and 132 of the murine IFN-γ peptide sequence (AKFEVNNPQVQRQAFNELIRVVHQLLPESSLRKRKRSR; listed as Mus sp.) | 53% | inactive | inactive | 13% | 8% | 5% | 3% | 1% | 8% | induction of the expression of HLA-DR [4]: no activity; % HLA-DR ([4]; 24 hours, flow cytometry): 1.2%; helical (ordered) conformation by CD ([2]; 50% trifluoroethanol): 65% |
| 3% | 1% | 9% | 8% | MuS: non-lipid scrambled analogue of the Mu peptide (PSRENQNAVKIQKLSVVLRREQKHRVERLAFRNQSLPF) |  |  |  | 6% | 8% | 14% | 3% | 1% | 5% |  |
|  |  |  |  | recombinant IFN-γ: recombinant interferon-gamma cytokine used as reference |  |  |  |  |  |  |  |  |  | stimulation time at which induction of class II CMH molecules is at a maximum (P388D1; cell lines of Table 8): 48 h |
